Measured values from patent US12435044B2, “Pyridazinone herbicides and pyridazinone intermediates used to prepare a herbicide” (FMC Corporation, priority 2018, dated 2025).

Columns and labels:
Format in all cases: in vivo
[1] = tested on: ducksalad (Heteranthera limosa); assay: Test C flooded paddy test; details: Flood, scale 0 to 100
From the text: (§1) Plant species in the flooded paddy test consisted of rice (transplanted and water seeded, Oryza sativa), sedge, umbrella (small-flower umbrella sedge, Cyperus difformis), ducksalad (Heteranthera limosa), Bulrush, Japanese (Scirpus juncoides) and barnyardgrass (Echinochloa crus-galli) grown to the 2-leaf stage for testing. At time of treatment, test pots were flooded to 3 cm above the soil surface, treated by application of test compounds directly to the paddy water, and then maintained at that water depth for the duration of the test. Treated plants and controls were maintained in a greenhouse for 13 to 15 d, after which time all species were compared to controls and visually evaluated. Plant response ratings, summarized in Table C are based on a scale of 0 to 100 where 0 is no effect and 100 is complete control. A dash (-) response means no test result.

[2] = tested on: rice (transplanted and water seeded, Oryza sativa); assay: Test C flooded paddy test; details: Flood, scale 0 to 100
From the text: as §1

[3] = tested on: barnyardgrass (Echinochloa crus-galli); assay: Test C flooded paddy test; details: Flood, scale 0 to 100
From the text: as §1

[4] = tested on: sedge, umbrella (small-flower umbrella sedge, Cyperus difformis); assay: Test C flooded paddy test; details: Flood, scale 0 to 100
From the text: as §1

oat, wild (Avena fatua) = assay: Test C pre-/postemergence greenhouse test; details: scale 0 to 100
Method in brief: (§2)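 Seeds sown in silt loam soil and sprayed preemergence with test chemicals in a non-phytotoxic solvent mixture containing surfactant. Postemergence plants, 2 to 18 cm (1- to 4-leaf stage), grown in peat/vermiculite planting medium and treated with the same formulation. Visual injury rated 0–100 versus untreated controls after 13 to 21 d in the greenhouse.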

[5] = tested on: blackgrass (Alopecurus myosuroides); assay: Test C pre-/postemergence greenhouse test; details: scale 0 to 100
Method in brief: as §2

[6] = tested on: ragweed (common ragweed, Ambrosia elatior); assay: Test C pre-/postemergence greenhouse test; details: scale 0 to 100
Method in brief: as §2

[7] = tested on: oilseed rape (Brassica napus); assay: Test C pre-/postemergence greenhouse test; details: Preemergence, scale 0 to 100
Method in brief: as §2

[8] = tested on: velvetleaf (Abutilon theophrasti); assay: Test C pre-/postemergence greenhouse test; details: Preemergence, scale 0 to 100
Method in brief: as §2

[9] = tested on: morningglory (Ipomoea coccinea); assay: Test C pre-/postemergence greenhouse test; details: Preemergence, scale 0 to 100
Method in brief: as §2

[10] = tested on: waterhemp (common waterhemp, Amaranthus rudis); assay: Test C pre-/postemergence greenhouse test; details: scale 0 to 100
Method in brief: as §2

[11] = tested on: wheat, winter (winter wheat, Triticum aestivum); assay: Test C pre-/postemergence greenhouse test; details: scale 0 to 100
Method in brief: as §2

[12] = tested on: barnyardgrass (Echinochloa crus-galli); assay: Test C pre-/postemergence greenhouse test; details: scale 0 to 100
Method in brief: as §2

Question: Which “Plant response rating, Ducksalad” value ([1]; 31 g ai/ha) does the source give for Cc1ccc2ccc(F)cc2c1-c1c(O)c(Cl)nn(C)c1=O [Cpd. No. 21] here?
Answer: 0

Question: And the “Plant response rating, Ducksalad” value ([1]; 62 g ai/ha)?
Answer: 30

Question: And the “Plant response rating, Ducksalad” value ([1]; 125 g ai/ha)?
Answer: 80

Question: What about the “Plant response rating, Ducksalad” value ([1]; 250 g ai/ha) of the same compound?
Answer: 85

Question: What about the “Plant response rating, Rice, Transplanted” value (“Plant response rating, Rice” for short) ([2]; 31 g ai/ha) of the same compound?
Answer: 0

Question: And the “Plant response rating, Rice” value ([2]; 62 g ai/ha)?
Answer: 0

Question: What about the “Plant response rating, Rice” value ([2]; 125 g ai/ha) of the same compound?
Answer: 0

Question: What about the “Plant response rating, Rice” value ([2]; 250 g ai/ha) of the same compound?
Answer: 15

Question: And the “Plant response rating, Barnyardgrass” value ([3]; 31 g ai/ha)?
Answer: 0

Question: And the “Plant response rating, Barnyardgrass” value ([3]; 62 g ai/ha)?
Answer: 0

Question: And the “Plant response rating, Barnyardgrass” value ([3]; 125 g ai/ha)?
Answer: 30

Question: And the “Plant response rating, Barnyardgrass” value ([3]; 250 g ai/ha)?
Answer: 65

Question: And the “Plant response rating, Sedge, Umbrella” value ([4]; 31 g ai/ha)?
Answer: 0

Question: And the “Plant response rating, Sedge, Umbrella” value ([4]; 62 g ai/ha)?
Answer: 0

Question: And the “Plant response rating, Sedge, Umbrella” value ([4]; 125 g ai/ha)?
Answer: 0

Question: And the “Plant response rating, Sedge, Umbrella” value ([4]; 250 g ai/ha)?
Answer: 0

Question: And the “Plant response rating, Oat, Wild” value (oat, wild (Avena fatua); Postemergence, 16 g ai/ha)?
Answer: 95

Question: What about the “Plant response rating, Oat, Wild” value (oat, wild (Avena fatua); Postemergence, 31 g ai/ha) of the same compound?
Answer: 98

Question: And the “Plant response rating, Oat, Wild” value (oat, wild (Avena fatua); Postemergence, 62 g ai/ha)?
Answer: 99

Question: What about the “Plant response rating, Oat, Wild” value (oat, wild (Avena fatua); Postemergence, 125 g ai/ha) of the same compound?
Answer: 100

Question: And the “Plant response rating, Oat, Wild” value (oat, wild (Avena fatua); Preemergence, 31 g ai/ha)?
Answer: 70

Question: What about the “Plant response rating, Oat, Wild” value (oat, wild (Avena fatua); Preemergence, 61 g ai/ha) of the same compound?
Answer: 45

Question: What about the “Plant response rating, Oat, Wild” value (oat, wild (Avena fatua); Preemergence, 62 g ai/ha) of the same compound?
Answer: 85

Question: What about the “Plant response rating, Oat, Wild” value (oat, wild (Avena fatua); Preemergence, 125 g ai/ha) of the same compound?
Answer: 85

Question: And the “Plant response rating, Blackgrass” value ([5]; Postemergence, 16 g ai/ha)?
Answer: 35

Question: What about the “Plant response rating, Blackgrass” value ([5]; Postemergence, 31 g ai/ha) of the same compound?
Answer: 60

Question: And the “Plant response rating, Blackgrass” value ([5]; Postemergence, 62 g ai/ha)?
Answer: 65

Question: What about the “Plant response rating, Blackgrass” value ([5]; Postemergence, 125 g ai/ha) of the same compound?
Answer: 70

Question: And the “Plant response rating, Blackgrass” value ([5]; Preemergence, 31 g ai/ha)?
Answer: 50

Question: What about the “Plant response rating, Blackgrass” value ([5]; Preemergence, 61 g ai/ha) of the same compound?
Answer: 35

Question: And the “Plant response rating, Blackgrass” value ([5]; Preemergence, 62 g ai/ha)?
Answer: 85

Question: What about the “Plant response rating, Blackgrass” value ([5]; Preemergence, 125 g ai/ha) of the same compound?
Answer: 85

Question: What about the “Plant response rating, Ragweed” value ([6]; Postemergence, 16 g ai/ha) of the same compound?
Answer: 90

Question: And the “Plant response rating, Ragweed” value ([6]; Postemergence, 31 g ai/ha)?
Answer: 95

Question: And the “Plant response rating, Ragweed” value ([6]; Postemergence, 62 g ai/ha)?
Answer: 98

Question: What about the “Plant response rating, Ragweed” value ([6]; Postemergence, 125 g ai/ha) of the same compound?
Answer: 98

Question: What about the “Plant response rating, Ragweed” value ([6]; Preemergence, 31 g ai/ha) of the same compound?
Answer: 100

Question: And the “Plant response rating, Ragweed” value ([6]; Preemergence, 61 g ai/ha)?
Answer: 45

Question: What about the “Plant response rating, Ragweed” value ([6]; Preemergence, 62 g ai/ha) of the same compound?
Answer: 98

Question: What about the “Plant response rating, Ragweed” value ([6]; Preemergence, 125 g ai/ha) of the same compound?
Answer: 95

Question: And the “Plant response rating, Oilseed Rape” value ([7]; 31 g ai/ha)?
Answer: 85

Question: What about the “Plant response rating, Oilseed Rape” value ([7]; 61 g ai/ha) of the same compound?
Answer: 0

Question: What about the “Plant response rating, Oilseed Rape” value ([7]; 62 g ai/ha) of the same compound?
Answer: 98

Question: And the “Plant response rating, Oilseed Rape” value ([7]; 125 g ai/ha)?
Answer: 100

Question: And the “Plant response rating, Velvetleaf” value ([8]; 31 g ai/ha)?
Answer: 75

Question: And the “Plant response rating, Velvetleaf” value ([8]; 61 g ai/ha)?
Answer: 40

Question: And the “Plant response rating, Velvetleaf” value ([8]; 62 g ai/ha)?
Answer: 75

Question: What about the “Plant response rating, Velvetleaf” value ([8]; 125 g ai/ha) of the same compound?
Answer: 95

Question: And the “Plant response rating, Morningglory” value ([9]; 31 g ai/ha)?
Answer: 40

Question: And the “Plant response rating, Morningglory” value ([9]; 61 g ai/ha)?
Answer: 5

Question: What about the “Plant response rating, Morningglory” value ([9]; 62 g ai/ha) of the same compound?
Answer: 80

Question: What about the “Plant response rating, Morningglory” value ([9]; 125 g ai/ha) of the same compound?
Answer: 95

Question: What about the “Plant response rating, Waterhemp” value ([10]; Postemergence, 16 g ai/ha) of the same compound?
Answer: 80

Question: What about the “Plant response rating, Waterhemp” value ([10]; Postemergence, 31 g ai/ha) of the same compound?
Answer: 85

Question: And the “Plant response rating, Waterhemp” value ([10]; Postemergence, 62 g ai/ha)?
Answer: 98

Question: And the “Plant response rating, Waterhemp” value ([10]; Postemergence, 125 g ai/ha)?
Answer: 90

Question: And the “Plant response rating, Waterhemp” value ([10]; Preemergence, 31 g ai/ha)?
Answer: 85

Question: And the “Plant response rating, Waterhemp” value ([10]; Preemergence, 61 g ai/ha)?
Answer: 80

Question: What about the “Plant response rating, Waterhemp” value ([10]; Preemergence, 62 g ai/ha) of the same compound?
Answer: 95

Question: What about the “Plant response rating, Waterhemp” value ([10]; Preemergence, 125 g ai/ha) of the same compound?
Answer: 98

Question: What about the “Plant response rating, Wheat” value ([11]; Postemergence, 16 g ai/ha) of the same compound?
Answer: 45

Question: And the “Plant response rating, Wheat” value ([11]; Postemergence, 31 g ai/ha)?
Answer: 65

Question: And the “Plant response rating, Wheat” value ([11]; Postemergence, 62 g ai/ha)?
Answer: 78

Question: What about the “Plant response rating, Wheat” value ([11]; Postemergence, 125 g ai/ha) of the same compound?
Answer: 80

Question: What about the “Plant response rating, Wheat” value ([11]; Preemergence, 31 g ai/ha) of the same compound?
Answer: 90

Question: What about the “Plant response rating, Wheat” value ([11]; Preemergence, 61 g ai/ha) of the same compound?
Answer: 5

Question: What about the “Plant response rating, Wheat” value ([11]; Preemergence, 62 g ai/ha) of the same compound?
Answer: 90

Question: What about the “Plant response rating, Wheat” value ([11]; Preemergence, 125 g ai/ha) of the same compound?
Answer: 90

Question: What about the “Plant response rating, Barnyardgrass” value ([12]; Postemergence, 16 g ai/ha) of the same compound?
Answer: 60

Question: And the “Plant response rating, Barnyardgrass” value ([12]; Postemergence, 31 g ai/ha)?
Answer: 85

Question: What about the “Plant response rating, Barnyardgrass” value ([12]; Postemergence, 62 g ai/ha) of the same compound?
Answer: 90

Question: What about the “Plant response rating, Barnyardgrass” value ([12]; Postemergence, 125 g ai/ha) of the same compound?
Answer: 90

Question: What about the “Plant response rating, Barnyardgrass” value ([12]; Preemergence, 31 g ai/ha) of the same compound?
Answer: 75

Question: What about the “Plant response rating, Barnyardgrass” value ([12]; Preemergence, 61 g ai/ha) of the same compound?
Answer: 25

Question: And the “Plant response rating, Barnyardgrass” value ([12]; Preemergence, 62 g ai/ha)?
Answer: 85

Question: What about the “Plant response rating, Barnyardgrass” value ([12]; Preemergence, 125 g ai/ha) of the same compound?
Answer: 95
